Earlier results as cited in patent US20070110715A1, “Treatment of alzheimer's disease” (Ares Trading S.A., priority 2003, published 2007).

Tested on: Alzheimer's disease risk
Conditions: postmenopausal women using hormone replacement

For estrogen, which “reduction in disease risk (AD)” value is on record?
Its value is about 50%.
